Reference: patent US11578056B2, “Solid forms comprising (S)-2-(2,6-dioxopiperidin-3-yl)-4-((2-fluoro-4-((3-morpholinoazetidin-1-yl)methyl)benzyl)amino)isoindoline-1,3-dione and salts thereof, and compositions comprising and methods of using the same” (Celgene Corporation, priority 2019, dated 2023)

Columns and labels:
Test in all cases: Hematological cell line viability/apoptosis flow cytometry assay
Type in all cases: cell-based
Daudi cell line = settings: Daudi (BL), 120 h
Method in brief: (§1)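 Cells were treated with compound at 0.00015 to 10 μM (0.1% DMSO) for 120 hours, then stained with Annexin V and DRAQ7 for flow cytometry. Live (double-negative) counts were normalized to DMSO to fit IC50, Emax and AUC; total early plus late apoptosis gave EC50, Ymax and AUC.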

GDM-1 cell line = settings: GDM-1 (AML); 120 h
Method in brief: as §1

HT cell line = settings: HT (DLBCL GCB); 120 h
Method in brief: as §1

I83-E95 cell line = settings: I83-E95 (CLL), 120 h
Method in brief: as §1

L-363 cell line = settings: L-363 (MM, PCL), 120 h
Method in brief: as §1

L-591 cell line = settings: L-591 (HL), 120 h
Method in brief: as §1

Mec1 cell line = settings: Mec1 (CLL), 120 h
Method in brief: as §1

NU-DHL-1 cell line = settings: NU-DHL-1 (DLBCL GCB); 120 h
Method in brief: as §1

OCI-LY7 cell line = settings: OCI-LY7 (DLBCL GCB); 120 h
Method in brief: as §1

ROS-50 cell line = settings: ROS-50 (DLBCL), 120 h
Method in brief: as §1

Rec-1 cell line = settings: Rec-1 (MCL); 120 h
Method in brief: as §1

SU-DHL-1 cell line = settings: SU-DHL-1 (DLBCL); 120 h
Method in brief: as §1

SU-DHL-5 cell line = settings: SU-DHL-5 (DLBCL); 120 h
Method in brief: as §1

U-2946 cell line = settings: U-2946 (DLBCL), 120 h
Method in brief: as §1

[1] = Homo sapiens, read-out: % Viable Cells IC50

With `O=C1CC[C@H](N2C(=O)c3cccc(NCc4ccc(CN5CC(N6CCOCC6)C5)cc4F)c3C2=O)C(=O)N1` [Compound 1, (S)-2-(2,6-dioxopiperidin-3-yl)-4-((2-fluoro-4-((3-morpholinoazetidin-1-yl)methyl)benzyl)amino)isoindoline-1,3-dione] the “% Viable Cells AUC” value (Daudi cell line) was 196.4, the “% Viable Cells Emax” value (Daudi cell line) was 0% and the “Apoptosis AUC” value (Daudi cell line) was 274. For the same compound, the “Apoptosis Ymax” value (Daudi cell line) was 84.0%, the EC50 (Daudi cell line; Homo sapiens) was 2320 nM and the IC50 (Daudi cell line; [1]) was 0.6 nM. For the same compound, the “% Viable Cells AUC” value (GDM-1 cell line) was 1455, the “% Viable Cells Emax” value (GDM-1 cell line) was 388.4% and the “Apoptosis AUC” value (GDM-1 cell line) was 696.9. The “Apoptosis Ymax” value (GDM-1 cell line) was 265%, the “% Viable Cells AUC” value (HT cell line) was 396.7 and the “% Viable Cells Emax” value (HT cell line) was 30.39%. The “Apoptosis AUC” value (HT cell line) was 225.3, the “Apoptosis Ymax” value (HT cell line) was 25.16% and the “% Viable Cells AUC” value (I83-E95 cell line) was 259.2. For the same compound, the “% Viable Cells Emax” value (I83-E95 cell line) was 21.6%, the “Apoptosis AUC” value (I83-E95 cell line) was 358.4 and the “Apoptosis Ymax” value (I83-E95 cell line) was 40.69%. The EC50 (I83-E95 cell line) was 61.1 nM, the IC50 (I83-E95 cell line; read-out: % Viable Cells IC50) was 17.3 nM and the EC50 (L-363 cell line; Homo sapiens) was 7950 nM. The IC50 (L-363 cell line; [1]) was 1 nM, the “% Viable Cells AUC” value (L-363 cell line) was 309.1 and the “% Viable Cells Emax” value (L-363 cell line) was 27.6%. The “Apoptosis AUC” value (L-363 cell line) was 2.954, the “Apoptosis Ymax” value (L-363 cell line) was 2% and the “% Viable Cells AUC” value (L-591 cell line) was 334.2. For the same compound, the “% Viable Cells Emax” value (L-591 cell line) was 34.6%, the “Apoptosis AUC” value (L-591 cell line) was 45.59 and the “Apoptosis Ymax” value (L-591 cell line) was 20.0%. It also gave an EC50 (L-591 cell line) of 1520 nM, an IC50 (L-591 cell line; read-out: % Viable Cells IC50) of 0.3 nM and an EC50 (Mec1 cell line; Homo sapiens) of 210 nM. For the same compound, the IC50 (Mec1 cell line; [1]) was greater than 10000 nM, the “% Viable Cells AUC” value (Mec1 cell line) was 866.5 and the “% Viable Cells Emax” value (Mec1 cell line) was 83.45%. For the same compound, the “Apoptosis AUC” value (Mec1 cell line) was 302.4, the “Apoptosis Ymax” value (Mec1 cell line) was 36.61% and the “% Viable Cells AUC” value (NU-DHL-1 cell line) was 12.37. For the same compound, the “% Viable Cells Emax” value (NU-DHL-1 cell line) was 0.4919%, the “Apoptosis AUC” value (NU-DHL-1 cell line) was 981.8 and the “Apoptosis Ymax” value (NU-DHL-1 cell line) was 99.17%. For the same compound, the “% Viable Cells AUC” value (OCI-LY7 cell line) was 48.18, the “% Viable Cells Emax” value (OCI-LY7 cell line) was 4.191% and the “Apoptosis AUC” value (OCI-LY7 cell line) was 682.7. For the same compound, the “Apoptosis Ymax” value (OCI-LY7 cell line) was 71.18%, the “% Viable Cells AUC” value (ROS-50 cell line) was 762.1 and the “% Viable Cells Emax” value (ROS-50 cell line) was 65.57%. The “Apoptosis AUC” value (ROS-50 cell line) was 87.92, the “Apoptosis Ymax” value (ROS-50 cell line) was 10.9% and the EC50 (ROS-50 cell line) was 335 nM. For the same compound, the IC50 (ROS-50 cell line; read-out: % Viable Cells IC50) was greater than 10000 nM, the “% Viable Cells AUC” value (Rec-1 cell line) was 281.8 and the “% Viable Cells Emax” value (Rec-1 cell line) was 21.04%. The “Apoptosis AUC” value (Rec-1 cell line) was 508.5, the “Apoptosis Ymax” value (Rec-1 cell line) was 57.27% and the “% Viable Cells AUC” value (SU-DHL-1 cell line) was 31.14. The “% Viable Cells Emax” value (SU-DHL-1 cell line) was 2.485%, the “Apoptosis AUC” value (SU-DHL-1 cell line) was 690.1 and the “Apoptosis Ymax” value (SU-DHL-1 cell line) was 73.83%. For the same compound, the “% Viable Cells AUC” value (SU-DHL-5 cell line) was 1.873, the “% Viable Cells Emax” value (SU-DHL-5 cell line) was 0.1398% and the “Apoptosis AUC” value (SU-DHL-5 cell line) was 934.1. The “Apoptosis Ymax” value (SU-DHL-5 cell line) was 95.23%, the “% Viable Cells AUC” value (U-2946 cell line) was 45.47 and the “% Viable Cells Emax” value (U-2946 cell line) was 0.4821%. For the same compound, the “Apoptosis AUC” value (U-2946 cell line) was 762.6, the “Apoptosis Ymax” value (U-2946 cell line) was 93.34% and the EC50 (U-2946 cell line) was 192 nM. For the same compound, the IC50 (U-2946 cell line; read-out: % Viable Cells IC50) was 4.6 nM.
